Results on 12 compounds are retold here after patent US20080249077A1, “17.Beta.-Fluoromethoxycarbonyl-Androst-4-En-3-One Compounds With a 17.Alpha.-Carbonate Sustituent” (priority 2005, published 2008).

Assay [1] deals with T1, glucocorticoid receptor (Homo sapiens, UniProt P04150).
T1 construct: A549 cells stably transfected with a reporter gene; endogenous in cells; host or cells: A549 cells
T1 sequence (P04150 1-777): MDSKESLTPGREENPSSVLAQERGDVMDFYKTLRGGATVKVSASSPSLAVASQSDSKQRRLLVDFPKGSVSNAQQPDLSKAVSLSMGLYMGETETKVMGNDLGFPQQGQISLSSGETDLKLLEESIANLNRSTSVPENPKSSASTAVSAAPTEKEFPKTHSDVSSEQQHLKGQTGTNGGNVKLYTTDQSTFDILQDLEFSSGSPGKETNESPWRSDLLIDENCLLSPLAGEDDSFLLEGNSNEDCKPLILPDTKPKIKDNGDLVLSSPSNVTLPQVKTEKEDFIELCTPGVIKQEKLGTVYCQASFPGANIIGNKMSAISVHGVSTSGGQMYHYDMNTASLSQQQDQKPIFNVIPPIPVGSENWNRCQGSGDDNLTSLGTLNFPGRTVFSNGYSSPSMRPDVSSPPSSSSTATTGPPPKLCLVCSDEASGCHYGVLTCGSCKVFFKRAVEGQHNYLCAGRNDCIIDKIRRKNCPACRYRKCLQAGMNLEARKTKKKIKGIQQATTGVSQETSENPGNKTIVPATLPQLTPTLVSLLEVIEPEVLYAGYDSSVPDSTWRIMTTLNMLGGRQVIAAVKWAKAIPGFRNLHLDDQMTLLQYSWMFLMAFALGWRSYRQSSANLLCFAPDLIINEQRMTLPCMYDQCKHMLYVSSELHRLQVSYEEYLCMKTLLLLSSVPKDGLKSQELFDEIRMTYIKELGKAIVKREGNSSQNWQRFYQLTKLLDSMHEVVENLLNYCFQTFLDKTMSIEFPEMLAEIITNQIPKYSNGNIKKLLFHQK
The assay is described as follows: Assay for transrepression activity of the glucocorticoid agonists (NF-κB responsive ELAM promoter-sPAP reporter, TNF-stimulated A549 cells). In kind it is cell-based. To be noted: compound 1 hour at 37° C., then TNF 10 ng/ml for 16 hours, read-out: pIC50 (transrepression) (converted). On the procedure:
Assay for Transrepression Activity of the Glucocorticoid Agonists
A549 cells stably transfected with a reporter gene containing the NF-κB responsive elements from the ELAM gene promoter coupled to sPAP (secreted alkaline phosphatase) are treated with test compounds at appropriate doses for 1 hour at 37° C. The cells are then stimulated with tumour necrosis factor (TNF, 10 ng/ml) for 16 hours, at which time the amount of alkaline phosphatase produced is measured by a standard colourimetric assay. Dose response curves were constructed from which EC50 values were estimated.

Assay [2] has as its target T1, glucocorticoid receptor. Briefly: Assay for transactivation activity of the glucocorticoid agonists (MMTV-LTR renilla luciferase reporter in A549 cells). In kind it is cell-based. To be noted: compound 6 hour at 37° C., read-out: maximal response relative to Dexamethasone (100%) (transactivation). As to the method:
Assay for Transactivation Activity of the Glucocorticoid Agonists
The functional assay based on that described by R. J. H. Austin et al., Eur Resp J. (2002), 20, 1386-1392 measures the ability of compounds to directly transactivate gene expression. A549 cells stably transfected with a reporter gene containing the glucocorticoid responsive region of the mouse mammary tumour virus long terminal repeat (MMTV-LTR) coupled to renilla luciferase were treated with test compounds at appropriate doses for 6 hour at 37° C. The amount of luciferase activity present within the cells is then determined by measuring the light emitted following incubation with a suitable substrate. Dose response curves were constructed from which EC50 values were estimated and from which maximal responses are calculated relative to Dexamethasone (100%).
On the technique in general: Reporter assays use an easily measured gene product as a stand-in for the process of interest.

Consider `CC(OC(=O)O[C@]1(C(=O)OCF)[C@H](C)C[C@H]2[C@@H]3C[C@H](F)C4=CC(=O)C=C[C@]4(C)[C@@]3(F)[C@@H](O)C[C@@]21C)C1CCCC1` (stereo partly drawn) [Example 21A, Fluoromethyl(6α,11β,16α,17α)-17-({[(1-cyclopentylethyl)oxy]carbonyl}oxy)-6,9-difluoro-11-hydroxy-16-methyl-3-oxoandrosta-1,4-diene-17-carboxylate], for which, in assay [1], the IC50 was < 0.1 nM.
Consider `CC(C)C(C)OC(=O)O[C@]1(C(=O)OCF)[C@H](C)C[C@H]2[C@@H]3C[C@H](F)C4=CC(=O)C=C[C@]4(C)[C@@]3(F)[C@@H](O)C[C@@]21C` (stereo partly drawn) [Example 9, Fluoromethyl(6α,11β,16α,17α)-17-({[(1,2-dimethylpropyl)oxy]carbonyl}oxy)-6,9-difluoro-11-hydroxy-16-methyl-3-oxoandrosta-1,4-diene-17-carboxylate], for which, in assay [1], the IC50 is < 0.1 nM. In addition, in assay [2], the Emax was < 25%.
For `C[C@@H]1C[C@H]2[C@@H]3C[C@H](F)C4=CC(=O)C=C[C@]4(C)[C@@]3(F)[C@@H](O)C[C@]2(C)[C@@]1(OC(=O)OC(C)(C)C)C(=O)OCF` [Example 1, Fluoromethyl(6α,11β,16α,17α)-17-({[(1,1-dimethylethyl)oxy]carbony}oxy)-6,9-difluoro-11-hydroxy-16-methyl-3-oxoandrosta-1,4-diene-17-carboxylate], in that order: < 0.1 nM and < 25%.
As for `CC(OC(=O)O[C@]1(C(=O)OCF)[C@H](C)C[C@H]2[C@@H]3C[C@H](F)C4=CC(=O)C=C[C@]4(C)[C@@]3(F)[C@@H](O)C[C@@]21C)C(C)(C)C` (single isomer, unassigned) [Example 23A, Fluoromethyl(6α,11β,16α,17α)-6,9-difluoro-11-hydroxy-16-methyl-3-oxo-17-({[(1,2,2-trimethylpropyl)oxy]carbonyl}oxy)androsta-14-diene-17-carboxylate], the IC50 in assay [1] is < 0.1 nM.
`CCC(CC)COC(=O)O[C@]1(C(=O)OCF)[C@H](C)C[C@H]2[C@@H]3C[C@H](F)C4=CC(=O)C=C[C@]4(C)[C@@]3(F)[C@@H](O)C[C@@]21C` [Example 6, Fluoromethyl(6α,11β,16α,17α)-17-({[(2-ethylbutyl)oxy]carbonyl}oxy)-6,9-difluoro-11-hydroxy-16-methyl-3-oxoandrosta-1,4-diene-17-carboxylate]: in assay [1], the IC50 is < 0.1 nM. In assay [2], the Emax was < 25%.
Consider `C[C@@H]1C[C@H]2[C@@H]3C[C@H](F)C4=CC(=O)C=C[C@]4(C)[C@@]3(F)[C@@H](O)C[C@]2(C)[C@@]1(OC(=O)OC1CCCC(C)(C)C1)C(=O)OCF` (single isomer, unassigned) [Example 19A, Fluoromethyl(6α,11β,16α,17α)-17-({[(3,3-dimethylcyclohexyl)oxy]carbonyl}oxy)-6,9-difluoro-11-hydroxy-16-methyl-3-oxoandrosta-1,4-diene-17-carboxylate], for which the IC50 in assay [1] was < 0.1 nM.
As to `C[C@@H]1C[C@H]2[C@@H]3C[C@H](F)C4=CC(=O)C=C[C@]4(C)[C@@]3(F)[C@@H](O)C[C@]2(C)[C@@]1(OC(=O)O[C@H]1C[C@H]2CC[C@]1(C)C2(C)C)C(=O)OCF` [Example 28, Fluoromethyl(6α,11β,16α,17α)-6,9-difluoro-11-hydroxy-16-methyl-3-oxo-17-[({[(1R,2S,4R)-1,7,7-trimethylbicyclo[2.2.1]hept-2-yl]oxy}carbonyl)oxy]androsta-1,4-diene-17-carboxylate], the Emax in assay [2] is < 25%.
Still for that read-out and setting: to `C[C@@H]1C[C@H]2[C@@H]3C[C@H](F)C4=CC(=O)C=C[C@]4(C)[C@@]3(F)[C@@H](O)C[C@]2(C)[C@@]1(OC(=O)OCC(C)(C)C)C(=O)OCF` [Example 7, Fluoromethyl(6α,11β,16α,17α)-17-({[(2,2-dimethylpropyl)oxy]carbonyl}oxy)-6,9-difluoro-11-hydroxy-16-methyl-3-oxoandrosta-1,4-diene-17-carboxylate] belongs < 25%.
On to `C[C@@H]1C[C@H]2[C@@H]3C[C@H](F)C4=CC(=O)C=C[C@]4(C)[C@@]3(F)[C@@H](O)C[C@]2(C)[C@@]1(OC(=O)OCC1CCCC1)C(=O)OCF` [Example 15, Fluoromethyl(6α,11β,16α,17α)-17-({[(cyclopentylmethyl)oxy]carbonyl}oxy)-6,9-difluoro-11-hydroxy-16-methyl-3-oxoandrosta-1,4-diene-17-carboxylate], for which the IC50 in assay [1] was < 0.1 nM. For the same compound, the Emax in assay [2] is < 25%.
Take `C[C@@H]1C[C@H]2[C@@H]3C[C@H](F)C4=CC(=O)C=C[C@]4(C)[C@@]3(F)[C@@H](O)C[C@]2(C)[C@@]1(OC(=O)OC1C(C)(C)C1(C)C)C(=O)OCF` [Example 26, Fluoromethyl(6α,11β,16α,17α)-6,9-difluoro-11-hydroxy-16-methyl-3-oxo-17-({[(2,2,3,3-tetramethylcyclopropyl)oxy]carbonyl}oxy)androsta-1,4-diene-17-carboxylate]: the Emax in assay [2] was < 25%.
With `CC[C@H]1CC[C@@H](OC(=O)O[C@]2(C(=O)OCF)[C@H](C)C[C@H]3[C@@H]4C[C@H](F)C5=CC(=O)C=C[C@]5(C)[C@@]4(F)[C@@H](O)C[C@@]32C)CC1` (relative stereo) [Example 36, Fluoromethyl(6α,11β,16α,17α)-17-({[(cis-4-ethylcyclohexyl)oxy]carbonyl}oxy)-6,9-difluoro-11-hydroxy-16-methyl-3-oxoandrosta-1,4-diene-17-carboxylate], the Emax in assay [2] is < 25%.
For `CC1CC2C3CC(F)C4=CC(=O)C=CC4(C)C3(F)C(O)CC2(C)C1(OC(=O)OC1CC2CCC1(C)C2(C)C)C(=O)OCF` [Example 29, Fluoromethyl(6α,11β,16α,17α)-6,9-difluoro-11-hydroxy-16-methyl-3-oxo-17-[({[(1R,2R,4R)-1,7,7-trimethylbicyclo[2.2.1]hept-2-yl]oxy}carbonyl)oxy]androsta-1,4-diene-17-carboxylate], the Emax in assay [2] is < 25%.
